The NIST ThermoML archive (doi:10.1016/j.tca.2009.07.002)
Numbers after ± are expanded uncertainties.

Legend:
[1] = 101 kPa, Liquid, Vibrating tube method
[2] = xn = mol fraction of the nth substance listed; conditions: 101 kPa, Liquid, Vibrating tube method

CCCCO [butan-1-ol]
mass density ([1]; 288.15 K): 813.373 ± 0.18 kg/m3
mass density ([1]; 293.15 K): 809.573 ± 0.18 kg/m3
mass density ([1]; 298.15 K): 805.762 ± 0.18 kg/m3
mass density ([1]; 303.15 K): 801.923 ± 0.18 kg/m3
mass density ([1]; 308.15 K): 798.053 ± 0.19 kg/m3
mass density ([1]; 313.15 K): 794.147 ± 0.19 kg/m3
mass density ([1]; 318.15 K): 790.231 ± 0.19 kg/m3
mass density ([1]; 323.15 K): 786.238 ± 0.19 kg/m3

NC1CCCCC1 [cyclohexylamine]
mass density ([1]; 288.15 K): 871.29 ± 0.3 kg/m3
mass density ([1]; 293.15 K): 866.747 ± 0.3 kg/m3
mass density ([1]; 298.15 K): 862.207 ± 0.3 kg/m3
mass density ([1]; 303.15 K): 857.671 ± 0.3 kg/m3
mass density ([1]; 308.15 K): 853.138 ± 0.3 kg/m3
mass density ([1]; 313.15 K): 848.607 ± 0.3 kg/m3
mass density ([1]; 318.15 K): 844.073 ± 0.3 kg/m3
mass density ([1]; 323.15 K): 839.547 ± 0.3 kg/m3

CCCCCCC [heptane] + NC1CCCCC1
mass density ([2]; 288.15 K, x2 = 0): 687.954 ± 0.23 kg/m3
mass density ([2]; 293.15 K, x2 = 0): 683.733 ± 0.23 kg/m3
mass density ([2]; 298.15 K, x2 = 0): 679.494 ± 0.23 kg/m3
mass density ([2]; 303.15 K, x2 = 0): 675.229 ± 0.24 kg/m3
mass density ([2]; 308.15 K, x2 = 0): 670.941 ± 0.24 kg/m3
mass density ([2]; 313.15 K, x2 = 0): 666.621 ± 0.24 kg/m3
mass density ([2]; 318.15 K, x2 = 0): 662.273 ± 0.24 kg/m3
mass density ([2]; 323.15 K, x2 = 0): 657.896 ± 0.24 kg/m3

CCCCCCC [heptane]
mass density ([1]; 288.15 K): 687.954 ± 0.23 kg/m3
mass density ([1]; 293.15 K): 683.733 ± 0.23 kg/m3
mass density ([1]; 298.15 K): 679.494 ± 0.23 kg/m3
mass density ([1]; 303.15 K): 675.229 ± 0.24 kg/m3
mass density ([1]; 308.15 K): 670.941 ± 0.24 kg/m3
mass density ([1]; 313.15 K): 666.621 ± 0.24 kg/m3
mass density ([1]; 318.15 K): 662.273 ± 0.24 kg/m3
mass density ([1]; 323.15 K): 657.896 ± 0.24 kg/m3

CCCCO [butan-1-ol] + NC1CCCCC1
mass density ([2]; 288.15 K, x1 = 1): 813.373 ± 0.18 kg/m3
mass density ([2]; 293.15 K, x1 = 1): 809.573 ± 0.18 kg/m3
mass density ([2]; 298.15 K, x1 = 1): 805.762 ± 0.18 kg/m3
mass density ([2]; 303.15 K, x1 = 1): 801.923 ± 0.18 kg/m3
mass density ([2]; 308.15 K, x1 = 1): 798.053 ± 0.19 kg/m3
mass density ([2]; 313.15 K, x1 = 1): 794.147 ± 0.19 kg/m3
mass density ([2]; 318.15 K, x1 = 1): 790.231 ± 0.19 kg/m3
mass density ([2]; 323.15 K, x1 = 1): 786.238 ± 0.19 kg/m3

CCCCCCC [heptane] + CCCCO
mass density ([2]; 288.15 K, x2 = 0): 687.954 ± 0.23 kg/m3
mass density ([2]; 293.15 K, x2 = 0): 683.733 ± 0.23 kg/m3
mass density ([2]; 298.15 K, x2 = 0): 679.494 ± 0.23 kg/m3
mass density ([2]; 303.15 K, x2 = 0): 675.229 ± 0.24 kg/m3
mass density ([2]; 308.15 K, x2 = 0): 670.941 ± 0.24 kg/m3
mass density ([2]; 313.15 K, x2 = 0): 666.621 ± 0.24 kg/m3
mass density ([2]; 318.15 K, x2 = 0): 662.273 ± 0.24 kg/m3
mass density ([2]; 323.15 K, x2 = 0): 657.896 ± 0.24 kg/m3
